The record followed here is publication PMC4574608, “Genomic profiling of a Hepatocyte growth factor-dependent signature for MET-targeted therapy in glioblastoma” (Journal of Translational Medicine, 2015).

Each structure is given as a SMILES string. Entries after “also recorded” stand apart in the source; their conditions may differ.

For one assay, the system named is U87MG cells. The assay can be described thus: 3D cell invasion assay (spheroid dispersal on Matrigel). In kind it is cell-based, human. As to conditions: at 50 μM, day 3. The method, then: U87MG cells were first grown in 1 % soft agar (Sigma) for 7 days to form spheroids. Each spheroid was then selected and placed onto Matrigel in a well to attach overnight (day 0), followed by treatment with DMSO or serially diluted compounds. Images were taken after an additional 3 days under a light microscope. Triplicates were tested for each concentration.

For the next assay, the system named is G91 PDX model. The assay can be described thus: GBM PDX therapeutic efficacy. The conditions noted are these: G91, no HGF expression, single agent. In kind it is in vivo, mouse. The method, then: (§1) All animal studies were approved by the IACUC of Van Andel Research Institute. Subcutaneous and orthotopic tumor initiation were performed as previously described. The orthotopic tumor growth was measured by bioluminescence signal intensity (BLI) using a small animal optical imager AMI 1000 (Spectral Instruments Imaging, LLC). Dosing with V-4084 and/or erlotinib was delivered once daily by oral gavage for 3 weeks. Vehicles used were 0.5 % MC 400 with 0.05 % Tween 80 (for V-4084) and with 0.5 % (w/v) methyl cellulose (for erlotinib). To determine the effectiveness of treatment, the average tumor size of each group from the last measurement was analyzed with Student’s t test (p < 0.05).

A further assay has as its system G116 PDX model. The assay can be described thus: GBM PDX therapeutic efficacy. As to conditions: G116, highest HGF expression, single agent. In kind it is in vivo, mouse. The protocol:
as §1

Another assay deals with KCI-10-40X1 tumors. The assay can be described thus: EGFRamp PDX therapeutic efficacy. The class given is in vivo, mouse. The method, then:
as §1
(§2) To induce acquired resistance, KCI-10-40X1cells were inoculated into nude mice subcutaneously followed by continuous erlotinib treatment (75–100 mg/kg). […] The same transplant procedure was serially repeated four times to establish the tumor model adaptive to erlotinib treatment (KCI-10-40X1/erl). […] A combination of V-4084 and erlotinib, however, retarded KCI-10-40X1/erl tumor growth (Fig. 5E).

The next assay deals with KCI-10-40X1/erl tumors. The assay can be described thus: Erlotinib-resistant EGFRamp PDX therapeutic efficacy. The class given is in vivo, mouse. The conditions noted are these: continued erlotinib treatment, discontinuing accelerated growth. The method, then:
as §1, §2

With `Cn1nnc2c(C(N)=O)ncn2c1=O` [TMZ, Temozolomide], the “U87MG cell dispersal (anti-migratory activity)” value with U87MG cells is given as “failed to show any anti-migratory activity”.
With `C#Cc1cccc(Nc2ncnc3cc(OCCOC)c(OCCOC)cc23)c1` [erlotinib], the “PDX tumor response to treatment” value is “exactly the opposite” in the assay on G91 PDX model and “no effect” in the assay with G116 PDX model. Also, the “Time of continuous treatment until tumors regrow (start of acquired resistance)” value in the assay with KCI-10-40X1 tumors (KCI-10-40X1, continuous erlotinib 75–100 mg/kg) is given as 5 weeks. In the assay with KCI-10-40X1 tumors (KCI-10-40X1 subcutaneous in nude mice, erlotinib 75 mg/kg, first week), the “Tumor response to treatment” value was “high sensitivity; also recorded: significant tumor regression”. Besides, in the assay on KCI-10-40X1/erl tumors, the Tumor growth result is listed as “grow while on erlotinib treatment”.
